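Dose response: 5 concentrations. Exposure: 48 h. Format: 96-well plates. Endpoint: linear interpolation; highest concentration if not reached. Abbreviation: GI50, concentration required for 50% inhibition of growth. TGI marks complete inhibition of growth.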
Key:
Experiment in all cases: NCI anticancer screen, dose series, 48 h
DU-145 prostate = system: DU-145 prostate
RPMI-8226 leukemia = system: RPMI-8226 leukemia
NCI-H226 lung = system: NCI-H226 lung
SNB-75 CNS = system: SNB-75 CNS
MCF7 breast = system: MCF7 breast
MALME-3M melanoma = system: MALME-3M melanoma
LOX IMVI melanoma = system: LOX IMVI melanoma
ACHN renal = system: ACHN renal
HT29 colon = system: HT29 colon
UACC-62 melanoma = system: UACC-62 melanoma
HCT-15 colon = system: HCT-15 colon
BT-549 breast = system: BT-549 breast
SK-MEL-2 melanoma = system: SK-MEL-2 melanoma
HL-60(TB) leukemia = system: HL-60(TB) leukemia
786-0 renal = system: 786-0 renal
K-562 leukemia = system: K-562 leukemia
SN12C renal = system: SN12C renal
SF-295 CNS = system: SF-295 CNS
OVCAR-5 ovarian = system: OVCAR-5 ovarian
HCC-2998 colon = system: HCC-2998 colon
SK-MEL-5 melanoma = system: SK-MEL-5 melanoma
HCT-116 colon = system: HCT-116 colon
NCI-H460 lung = system: NCI-H460 lung
SF-539 CNS = system: SF-539 CNS
NCI-H23 lung = system: NCI-H23 lung
SK-MEL-28 melanoma = system: SK-MEL-28 melanoma
T-47D breast = system: T-47D breast
SNB-19 CNS = system: SNB-19 CNS
SF-268 CNS = system: SF-268 CNS
UO-31 renal = system: UO-31 renal
HOP-62 NSCLC = system: HOP-62 NSCLC
RXF 393 renal = system: RXF 393 renal
COLO 205 colon = system: COLO 205 colon
A498 renal = system: A498 renal
MDA-MB-435 = system: MDA-MB-435
CCRF-CEM leukemia = system: CCRF-CEM leukemia
TK-10 renal = system: TK-10 renal
CAKI-1 renal = system: CAKI-1 renal
MOLT-4 leukemia = system: MOLT-4 leukemia
MDA-MB-231 breast = system: MDA-MB-231 breast
KM12 colon = system: KM12 colon
OVCAR-8 ovarian = system: OVCAR-8 ovarian
UACC-257 melanoma = system: UACC-257 melanoma
U251 CNS = system: U251 CNS
HOP-92 NSCLC = system: HOP-92 NSCLC
OVCAR-4 ovarian = system: OVCAR-4 ovarian
NCI-H522 lung = system: NCI-H522 lung
SW-620 colon = system: SW-620 colon
A549 NSCLC = system: A549 NSCLC
M14 melanoma = system: M14 melanoma
IGROV1 ovarian = system: IGROV1 ovarian
PC-3 prostate = system: PC-3 prostate
HS 578T breast = system: HS 578T breast
SK-OV-3 ovarian = system: SK-OV-3 ovarian
OVCAR-3 ovarian = system: OVCAR-3 ovarian
EKVX NSCLC = system: EKVX NSCLC
NCI/ADR-RES ovarian = system: NCI/ADR-RES ovarian

Cn1c2c(c3ccc(Cl)c(Cl)c31)C(C#N)C1(CCNCC1)NC2=O (stereo not drawn)
GI50 (DU-145 prostate): 1560 nM | TGI (DU-145 prostate): 3030 nM | GI50 (RPMI-8226 leukemia): 1700 nM | TGI (RPMI-8226 leukemia): 3870 nM | GI50 (NCI-H226 lung): 2240 nM | TGI (NCI-H226 lung): 12700 nM | GI50 (SNB-75 CNS): 1140 nM | TGI (SNB-75 CNS): 4720 nM | GI50 (MCF7 breast): 1450 nM | TGI (MCF7 breast): 3010 nM | GI50 (MALME-3M melanoma): 1420 nM | TGI (MALME-3M melanoma): 3190 nM | GI50 (LOX IMVI melanoma): 1540 nM | TGI (LOX IMVI melanoma): 3390 nM | GI50 (ACHN renal): 1820 nM | TGI (ACHN renal): 5790 nM | GI50 (HT29 colon): 2020 nM | GI50 (UACC-62 melanoma): 1630 nM | TGI (UACC-62 melanoma): 3310 nM | GI50 (HCT-15 colon): 2400 nM | TGI (HCT-15 colon): 7880 nM | GI50 (BT-549 breast): 3040 nM | TGI (BT-549 breast): 16700 nM | GI50 (SK-MEL-2 melanoma): 2120 nM | TGI (SK-MEL-2 melanoma): 4730 nM | GI50 (HL-60(TB) leukemia): 1960 nM | TGI (HL-60(TB) leukemia): 3910 nM | GI50 (786-0 renal): 1660 nM | TGI (786-0 renal): 3360 nM | GI50 (K-562 leukemia): 1470 nM | TGI (K-562 leukemia): 2890 nM | GI50 (SN12C renal): 2510 nM | TGI (SN12C renal): 12600 nM | GI50 (SF-295 CNS): 2460 nM | TGI (SF-295 CNS): 8100 nM | GI50 (OVCAR-5 ovarian): 1490 nM | TGI (OVCAR-5 ovarian): 4680 nM | GI50 (HCC-2998 colon): 1310 nM | TGI (HCC-2998 colon): 2690 nM | GI50 (SK-MEL-5 melanoma): 1500 nM | TGI (SK-MEL-5 melanoma): 2910 nM | GI50 (HCT-116 colon): 1390 nM | TGI (HCT-116 colon): 2920 nM | GI50 (NCI-H460 lung): 1710 nM | TGI (NCI-H460 lung): 3790 nM | GI50 (SF-539 CNS): 2030 nM | TGI (SF-539 CNS): 6340 nM | GI50 (NCI-H23 lung): 2720 nM | TGI (NCI-H23 lung): 9220 nM | GI50 (SK-MEL-28 melanoma): 841 nM | TGI (SK-MEL-28 melanoma): 2370 nM | GI50 (T-47D breast): 1720 nM | TGI (T-47D breast): 3940 nM | GI50 (SNB-19 CNS): 3100 nM | TGI (SNB-19 CNS): 13000 nM | GI50 (SF-268 CNS): 1770 nM | TGI (SF-268 CNS): 4890 nM | GI50 (UO-31 renal): 1230 nM | TGI (UO-31 renal): 4460 nM | GI50 (HOP-62 NSCLC): 1470 nM | TGI (HOP-62 NSCLC): 3930 nM | GI50 (RXF 393 renal): 1520 nM | TGI (RXF 393 renal): 5790 nM | GI50 (COLO 205 colon): 1190 nM | TGI (COLO 205 colon): 2540 nM | GI50 (A498 renal): 1240 nM | TGI (A498 renal): 2950 nM | GI50 (MDA-MB-435): 1400 nM | TGI (MDA-MB-435): 2900 nM | GI50 (CCRF-CEM leukemia): 1930 nM | TGI (CCRF-CEM leukemia): 4720 nM | GI50 (TK-10 renal): 1230 nM | TGI (TK-10 renal): 3460 nM | GI50 (CAKI-1 renal): 384 nM | TGI (CAKI-1 renal): 1750 nM | GI50 (MOLT-4 leukemia): 1230 nM | TGI (MOLT-4 leukemia): 2700 nM | GI50 (MDA-MB-231 breast): 1540 nM | TGI (MDA-MB-231 breast): 3460 nM | GI50 (KM12 colon): 1600 nM | TGI (KM12 colon): 3030 nM | GI50 (OVCAR-8 ovarian): 2830 nM | TGI (OVCAR-8 ovarian): 8850 nM | GI50 (UACC-257 melanoma): 1750 nM | TGI (UACC-257 melanoma): 3690 nM | GI50 (U251 CNS): 2940 nM | TGI (U251 CNS): 10700 nM | GI50 (HOP-92 NSCLC): 484 nM | TGI (HOP-92 NSCLC): 2370 nM | GI50 (OVCAR-4 ovarian): 2820 nM | TGI (OVCAR-4 ovarian): 8800 nM | GI50 (NCI-H522 lung): 1550 nM | TGI (NCI-H522 lung): 3420 nM | GI50 (SW-620 colon): 1650 nM | TGI (SW-620 colon): 3260 nM | GI50 (A549 NSCLC): 2420 nM | TGI (A549 NSCLC): 7890 nM | GI50 (M14 melanoma): 1540 nM | TGI (M14 melanoma): 3300 nM | GI50 (IGROV1 ovarian): 1660 nM | TGI (IGROV1 ovarian): 3830 nM | GI50 (PC-3 prostate): 1550 nM | TGI (PC-3 prostate): 4990 nM | GI50 (HS 578T breast): 1130 nM | TGI (HS 578T breast): 3610 nM | GI50 (SK-OV-3 ovarian): 2730 nM | TGI (SK-OV-3 ovarian): 8970 nM | GI50 (OVCAR-3 ovarian): 1420 nM | TGI (OVCAR-3 ovarian): 2900 nM | GI50 (EKVX NSCLC): 2470 nM | TGI (EKVX NSCLC): 9840 nM | GI50 (NCI/ADR-RES ovarian): 3720 nM | TGI (NCI/ADR-RES ovarian): 12200 nM

From PubChem BioAssay (NCI)
